Measurements taken from article PMC11528321 (RSC Medicinal Chemistry, 2024).
Entries after “also recorded” stand apart in the source; their conditions may differ.

What was measured:
OE33 and FLO-1 cells = assay: Antiproliferative screening, both OC cell lines together; type: cell-based, human; conditions: for antiproliferative activity (in words): dose range 0.003-30 μM
AuroraA = molecular target: T1, AuroraA (Homo sapiens, UniProt O14965); assay: 33PanQinase kinome profiling; type: biochemical; conditions: mean, respect to DMSO control
T1 sequence (O14965 1-403): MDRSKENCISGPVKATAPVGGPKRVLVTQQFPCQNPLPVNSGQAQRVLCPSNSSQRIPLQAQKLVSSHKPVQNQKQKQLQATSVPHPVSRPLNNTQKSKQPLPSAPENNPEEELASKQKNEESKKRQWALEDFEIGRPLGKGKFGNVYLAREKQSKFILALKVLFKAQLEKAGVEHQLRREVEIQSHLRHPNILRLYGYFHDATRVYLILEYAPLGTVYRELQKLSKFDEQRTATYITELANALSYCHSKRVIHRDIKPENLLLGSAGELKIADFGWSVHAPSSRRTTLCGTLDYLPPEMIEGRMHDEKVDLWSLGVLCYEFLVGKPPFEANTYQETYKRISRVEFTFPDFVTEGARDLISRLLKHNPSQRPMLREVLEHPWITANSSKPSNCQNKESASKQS

AXL = molecular target: T2, AXL (Homo sapiens, UniProt P30530); assay: 33PanQinase kinome profiling; type: biochemical; conditions: 1 μM
T2 sequence (P30530 26-894): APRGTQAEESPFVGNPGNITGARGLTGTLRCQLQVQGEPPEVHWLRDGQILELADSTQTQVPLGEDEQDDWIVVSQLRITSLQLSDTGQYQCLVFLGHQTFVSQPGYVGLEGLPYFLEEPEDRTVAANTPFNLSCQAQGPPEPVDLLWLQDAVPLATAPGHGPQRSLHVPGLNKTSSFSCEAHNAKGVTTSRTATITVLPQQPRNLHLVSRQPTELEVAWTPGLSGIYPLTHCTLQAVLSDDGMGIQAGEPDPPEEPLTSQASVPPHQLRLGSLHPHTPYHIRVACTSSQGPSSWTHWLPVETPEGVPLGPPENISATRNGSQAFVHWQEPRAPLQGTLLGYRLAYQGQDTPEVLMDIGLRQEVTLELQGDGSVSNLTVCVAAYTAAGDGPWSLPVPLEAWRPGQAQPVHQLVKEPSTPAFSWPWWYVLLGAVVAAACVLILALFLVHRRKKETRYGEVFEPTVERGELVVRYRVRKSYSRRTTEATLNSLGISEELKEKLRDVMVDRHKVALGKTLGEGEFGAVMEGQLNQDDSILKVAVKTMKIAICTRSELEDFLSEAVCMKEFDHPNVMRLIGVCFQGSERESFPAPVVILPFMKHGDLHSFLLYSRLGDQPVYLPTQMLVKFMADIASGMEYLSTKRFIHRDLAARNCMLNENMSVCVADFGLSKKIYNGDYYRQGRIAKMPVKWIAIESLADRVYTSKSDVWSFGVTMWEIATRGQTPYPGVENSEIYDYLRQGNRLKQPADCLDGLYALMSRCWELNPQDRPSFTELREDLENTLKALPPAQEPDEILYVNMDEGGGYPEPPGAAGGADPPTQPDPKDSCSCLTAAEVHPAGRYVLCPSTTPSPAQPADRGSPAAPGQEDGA

RET = RET (Homo sapiens, UniProt P07949); assay: 33PanQinase kinome profiling; type: biochemical; conditions: mean, respect to DMSO control
FLO-1 cells = assay: Cell cycle assay; type: cell-based, human; conditions: 3 μM, 72 h, vs DMSO control
[1] = molecular target: T3, Nano-Luc-Aurora A (fusion vector) in HEK293 (Homo sapiens, UniProt O14965); assay: NanoBRET target engagement assay; type: cell-based; conditions: HEK293, 1 h treatment, 0.001-100 µM
T3 sequence (O14965 1-403): T1 sequence (O14965 1-403)

FLT3 = molecular target: T4, FLT3 (Homo sapiens, UniProt P36888); assay: 33PanQinase kinome profiling; type: biochemical; conditions: mean, respect to DMSO control
T4 sequence (P36888 564-993 limits assumed): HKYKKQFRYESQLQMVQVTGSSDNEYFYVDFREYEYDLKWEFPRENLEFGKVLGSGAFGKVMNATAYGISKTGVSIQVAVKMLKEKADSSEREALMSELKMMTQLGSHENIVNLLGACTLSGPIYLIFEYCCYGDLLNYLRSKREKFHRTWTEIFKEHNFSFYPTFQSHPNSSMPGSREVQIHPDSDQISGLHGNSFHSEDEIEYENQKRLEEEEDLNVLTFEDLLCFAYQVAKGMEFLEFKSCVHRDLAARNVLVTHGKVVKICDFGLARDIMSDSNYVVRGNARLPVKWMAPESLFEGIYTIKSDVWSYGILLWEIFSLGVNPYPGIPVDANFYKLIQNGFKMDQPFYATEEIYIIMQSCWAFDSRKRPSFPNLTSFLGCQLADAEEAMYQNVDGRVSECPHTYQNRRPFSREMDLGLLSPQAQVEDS

OE33 cells = assay: Cell cycle assay; type: cell-based, human; conditions: 3 μM, 72 h, vs DMSO control

Sequence of RET (P07949 29-1114): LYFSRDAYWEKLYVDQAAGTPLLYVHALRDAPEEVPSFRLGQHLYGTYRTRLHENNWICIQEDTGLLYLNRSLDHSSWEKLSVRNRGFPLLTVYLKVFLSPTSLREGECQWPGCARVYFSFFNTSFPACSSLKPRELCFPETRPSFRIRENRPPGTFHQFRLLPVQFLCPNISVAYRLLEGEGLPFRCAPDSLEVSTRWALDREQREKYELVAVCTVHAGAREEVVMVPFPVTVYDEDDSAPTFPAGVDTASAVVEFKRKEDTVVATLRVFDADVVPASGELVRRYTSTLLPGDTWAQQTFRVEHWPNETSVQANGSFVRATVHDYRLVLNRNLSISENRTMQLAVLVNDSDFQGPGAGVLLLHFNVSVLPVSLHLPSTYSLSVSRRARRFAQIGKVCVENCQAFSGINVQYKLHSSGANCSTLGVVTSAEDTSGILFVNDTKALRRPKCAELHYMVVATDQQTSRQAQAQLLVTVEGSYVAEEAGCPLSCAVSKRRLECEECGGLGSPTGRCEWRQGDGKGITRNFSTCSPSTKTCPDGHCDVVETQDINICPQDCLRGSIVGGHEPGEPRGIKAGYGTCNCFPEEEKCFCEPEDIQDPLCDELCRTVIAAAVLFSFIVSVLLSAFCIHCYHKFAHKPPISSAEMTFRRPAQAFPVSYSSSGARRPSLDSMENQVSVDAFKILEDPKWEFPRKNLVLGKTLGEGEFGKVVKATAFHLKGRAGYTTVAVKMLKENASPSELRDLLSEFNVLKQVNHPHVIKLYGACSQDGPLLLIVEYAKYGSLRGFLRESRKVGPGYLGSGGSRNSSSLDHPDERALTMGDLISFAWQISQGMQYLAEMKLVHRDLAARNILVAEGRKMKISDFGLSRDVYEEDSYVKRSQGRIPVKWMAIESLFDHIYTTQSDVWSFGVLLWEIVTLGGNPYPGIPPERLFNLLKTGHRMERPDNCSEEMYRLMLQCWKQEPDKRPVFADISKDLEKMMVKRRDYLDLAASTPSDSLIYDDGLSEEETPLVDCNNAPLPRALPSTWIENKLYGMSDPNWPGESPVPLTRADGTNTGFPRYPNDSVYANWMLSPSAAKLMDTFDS

With `CNc1ncc2c(/C=C/C(=O)O)nn(CC3CCCC3)c2n1` [compound 12] the “antiproliferative activity (in words)” value (OE33 and FLO-1 cells) was “lack of activity”.

In the case of `Nc1ncnc2c1c(/C=C/C(=O)O)nn2CC1CCCC1` [compound 10], the “antiproliferative activity (in words)” value (OE33 and FLO-1 cells) is reported as “lack of activity”.

For `COC1CCN(C(=O)/C=C/c2nn(CC3CCCC3)c3ncnc(N)c23)CC1` [1A7], the “antiproliferative activity (in words)” value (OE33 and FLO-1 cells) was “completely inactive”.

`CNc1ncc2c(/C=C/C(=O)N3CCC(OC)CC3)nn(Cc3cccc(C(F)(F)F)c3)c2n1` [2D7, (2E)-1-(4-Methoxypiperidin-1-yl)-3-[6-(methylamino)-1-{[3-(trifluoromethyl)phenyl]methyl}-1H-pyrazolo[3,4-d]pyrimidin-3-yl]prop-2-en-1-one] was tested, and the “% Inhibition [1uM]” value (AuroraA) was over 50%, the “inhibition of AXL (in words)” value (AXL) was “minimal to no inhibition” and the “% Inhibition [1uM]” value (RET) was “minimal to no inhibition”. The “effect on the cell cycle (in words)” value (FLO-1 cells) was “enrichment of cells in the S and G2/M phases”, the “AURKA target engagement in cells (in words)” value [1] was “direct dose-dependent binding” and the “% Inhibition [1uM]” value (FLT3) was “minimal to no inhibition”. The “effect on the cell cycle (in words)” value (OE33 cells) was “rapid arrest of cells in the G2/M phase; also recorded: slight increase in the number of cells in the sub-G1 phase”.

With `CNc1ncc2c(/C=C/C(=O)N3CCC4(CC3)OCCO4)nn(Cc3cccc(C)c3)c2n1` [2C4] the “fold increase in antiproliferative potency over 2B10” value (OE33 and FLO-1 cells; compared with 2B10) was 2 fold.
